Data: patent publication US8101171B2, “Modulators of the development of mychorrizal fungi with arbuscules, and uses thereof” (priority 2004, dated 2012)
Marks after values point to notes of the source that are not given here.

Key:
Gigaspora rosea = test: Oxygraph measurement of cell respiration of Gigaspora rosea; assay type: cell-based; conditions: for % stimulation (respiration, average of 3 tests): GR7 0.1 μM final
[1] = tested on: Medicago truncatula / Gigaspora rosea; test: In vitro mycorrhization of Medicago truncatula by Gigaspora rosea (points of contact between fungus and roots); assay type: in vivo; conditions: GR7 0.1 μM in medium M, 3 weeks, 8 plants; control (methanol) 2.2; P = 0.02 Mann-Whitney
Experimental: Measurements of the number of points of contact established between the fungus and the roots during in vitro mycorrhization experiments were carried out. Medicago truncatula plants were cultivated in vitro in the presence of Gigaspora rosea spores, on medium M enriched with GR7.
For the tests, medium M prepared as above is enriched with GR7 to give a final concentration of 0.1 μM. The controls are carried out with medium M to which methanol is added to give a final concentration of 0.1%. The medium is poured into square Petri dishes (100×100). Three control dishes and three test dishes are prepared. The Gigaspora rosea spores are pre-germinated in those dishes (25 per dish) in an oven at 30° C., with 2% CO2, for 6 days. The Medicago truncatula seeds are sterilized with Javel water at 8 degrees chlorimetric for 5 minutes. After rinsing with sterile distilled water, they are germinated on a medium composed of bacteriological agar with 1 μM gibberellin. After 24 hours at 4° C., they are transferred into a chamber at 25° C. for 24 hours. Eighteen plantlets so prepared are then distributed randomly in the six experimental dishes containing the spores in the process of germinating. […]
The number of points of contact established between the fungus and the roots is counted plant by plant after observation under a microscope.

Gigaspora rosea spores [2] = test: Stimulation of hypha branching and elongation of Gigaspora rosea by GR7; assay type: cell-based
Experimental: Gigaspora rosea spores are germinated in gelosed medium M for 5 days at 30° C. and in an atmosphere enriched with 2% CO2. 10 μl of test agent solution are then added to the medium by introduction into a well hollowed out in the gelose, starting from a solution having a concentration of test agent varying from 10^−5 to 10^−11 M. The controls receive only the solvent for the test agents (10 μl of 50% methanol) under the same conditions.
The apexes formed are counted after 48 hours' treatment. In addition, the elongation activity is evaluated by measuring the number of cm formed before and after treatment. Two series of experiments, with different concentrations of GR7, were carried out.

[3] = tested on: Glomus intraradices spores; test: Polarographic measurement of oxygen consumption (cell respiration) of germinating Glomus intraradices spores; assay type: cell-based; conditions: GR24 0.3 μM final
Experimental: Polarographic measurements of oxygen consumption were carried out on Glomus intraradices spores in germination, in the presence or absence of GR24.
400 spores in 1 ml of medium M are used per test.
In order to stimulate the spores, there are added to each test 10 μl of a 30 μM solution of GR24 in acetone (1%), namely a final concentration of GR24 of 0.3 μM. The controls receive 10 μl of acetone (1%).
The oxygen consumption is measured using an oxygen electrode, known as a Clark electrode (Hansatech Ltd, Hardwick Industrial, Norfolk, United Kingdom), inserted into a Plexiglass chamber. The oxygen electrode is connected to a recorder calibrated between 0 and 100% with atmospheric oxygen.
The spores are introduced into the chamber, and the temperature is maintained at 30° C. by means of a circulating water bath. The rates of oxygen consumption are read directly from the recorder. The measurements of oxygen consumption are carried out over 15 minutes, after 4 hours' stimulation (series 1) and after 5½ hours' stimulation (series 2).
Two independent series of experiments were carried out. For each, the recorded values correspond to the average of 3 tests.
The increase in oxygen consumption is expressed as a percentage relative to that of the control, treated with acetone.

Gigaspora rosea spores [4] = test: Stimulation of the branching of the hyphae of Gigaspora rosea by GR24 (newly formed apexes); assay type: cell-based
Text: The stimulated branching of the hyphae (appearance of new apexes) is the test currently employed to evaluate the stimulating activity of various effectors on endomycorrhizal fungi of the genus Gigaspora. This phenomenon occurs naturally close to the roots of host plants, as well as under the action of root exudates, and is considered to be a preparatory phase to the establishment of symbiosis (Buée et al., Molecular Plant-Microbe Interaction, 2000, 13:693-698). This increase in branching is the result of stimulation of the fungus metabolism and leads to an increase in the points of contact between the fungus and the roots of the plant. Any increase in the branching of the hyphae of the fungus increases mycorrhization.
Measurements of branching (expressed as the number of apexes appearing after stimulation) of the germinative tubes of Gigaspora rosea were carried out in the presence of various concentrations of GR24.
To that end, Gigaspora rosea spores are germinated in gelosed medium M (medium M containing 0.4% (w/v) Phytagel®—SIGMA, France) for 5 days at 30° C. and in an atmosphere enriched with 2% CO2. 10 μl of test agents (in concentrations varying from 10^−8 to 10^−15 M) in solution in 50% methanol are then added to the medium by introduction into a well hollowed out in the gelose.
The controls receive the solvent for the test molecules (10 μl of 50% methanol) under the same conditions.
48 hours after treatment, the apexes formed above the stimulation zone are counted. Two series of experiments with GR24, at different concentrations, were carried out.

[5] = Series 1: after 4 hours' stimulation
[6] = Series 2: after 5½ hours' stimulation
[7] = GR7 10^−5 M, Series 1, relative to control
[8] = GR7 10^−5 M, Series 2, relative to control
[9] = GR7 10^−7 M, Series 1, relative to control
[10] = GR7 10^−7 M, Series 2, relative to control
[11] = GR7 10^−9 M, Series 1, relative to control
[12] = GR7 10^−9 M, Series 2, relative to control
[13] = GR7 10^−11 M, Series 1, relative to control
[14] = GR7 10^−11 M, Series 2, relative to control

Compound: CC1=CC(O/C=C2/C(=O)OC3CC=CC23)OC1=O (stereo not drawn) [GR7]
- % stimulation (respiration, average of 3 tests) (Gigaspora rosea; [5]): 24.0%
- % stimulation (respiration, average of 3 tests) (Gigaspora rosea; [6]): 33.6%
- Activity on the respiration of Gigaspora rosea (Gigaspora rosea; final concentration 0.1 μM, after 5 hours' stimulation): active
- Average points of contact (fungus-roots, per plant) [1]: 7.75*
- cm newly formed/spore (Gigaspora rosea spores [2]; GR7 10^−5 M, Series 1): 4.88 cm
- Number of newly formed apexes (Gigaspora rosea spores [2]; GR7 10^−5 M, Series 1, after 48 hours' treatment): 9.3
- Branching stimulation ratio (Gigaspora rosea spores [2]; [7]): 5.31
- Growth stimulation ratio (Gigaspora rosea spores [2]; [7]): 4.44
- cm newly formed/spore (Gigaspora rosea spores [2]; GR7 10^−5 M, Series 2): 6.5 cm
- Number of newly formed apexes (Gigaspora rosea spores [2]; GR7 10^−5 M, Series 2, after 48 hours' treatment): 14.25
- Branching stimulation ratio (Gigaspora rosea spores [2]; [8]): 6.59
- Growth stimulation ratio (Gigaspora rosea spores [2]; [8]): 2.60
- cm newly formed/spore (Gigaspora rosea spores [2]; GR7 10^−7 M, Series 1): 4.65 cm
- Number of newly formed apexes (Gigaspora rosea spores [2]; GR7 10^−7 M, Series 1, after 48 hours' treatment): 8.75
- Branching stimulation ratio (Gigaspora rosea spores [2]; [9]): 5
- Growth stimulation ratio (Gigaspora rosea spores [2]; [9]): 4.23
- cm newly formed/spore (Gigaspora rosea spores [2]; GR7 10^−7 M, Series 2): 5.09 cm
- Number of newly formed apexes (Gigaspora rosea spores [2]; GR7 10^−7 M, Series 2, after 48 hours' treatment): 10.42
- Branching stimulation ratio (Gigaspora rosea spores [2]; [10]): 4.82
- Growth stimulation ratio (Gigaspora rosea spores [2]; [10]): 2.04
- cm newly formed/spore (Gigaspora rosea spores [2]; GR7 10^−9 M, Series 1): 2.62 cm
- Number of newly formed apexes (Gigaspora rosea spores [2]; GR7 10^−9 M, Series 1, after 48 hours' treatment): 8
- Branching stimulation ratio (Gigaspora rosea spores [2]; [11]): 4.57
- Growth stimulation ratio (Gigaspora rosea spores [2]; [11]): 2.38
- cm newly formed/spore (Gigaspora rosea spores [2]; GR7 10^−9 M, Series 2): 4.99 cm
- Number of newly formed apexes (Gigaspora rosea spores [2]; GR7 10^−9 M, Series 2, after 48 hours' treatment): 6.16
- Branching stimulation ratio (Gigaspora rosea spores [2]; [12]): 2.85
- Growth stimulation ratio (Gigaspora rosea spores [2]; [12]): 2.00
- cm newly formed/spore (Gigaspora rosea spores [2]; GR7 10^−11 M, Series 1): 2.65 cm
- Number of newly formed apexes (Gigaspora rosea spores [2]; GR7 10^−11 M, Series 1, after 48 hours' treatment): 5.16
- Branching stimulation ratio (Gigaspora rosea spores [2]; [13]): 2.94
- Growth stimulation ratio (Gigaspora rosea spores [2]; [13]): 2.41
- cm newly formed/spore (Gigaspora rosea spores [2]; GR7 10^−11 M, Series 2): 2.23 cm
- Number of newly formed apexes (Gigaspora rosea spores [2]; GR7 10^−11 M, Series 2, after 48 hours' treatment): 2.66
- Branching stimulation ratio (Gigaspora rosea spores [2]; [14]): 1.23
- Growth stimulation ratio (Gigaspora rosea spores [2]; [14]): 0.89
- Activity on branching (number of newly formed apexes) (Gigaspora rosea spores [2]; doses of the nanomolar order): significantly active
- Activity on cell elongation (Gigaspora rosea spores [2]; doses of the nanomolar order): significantly active

Compound: CC1=CC(O/C=C2/C(=O)OC3c4ccccc4CC23)OC1=O (stereo not drawn) [GR24]
- % stimulation (increase in oxygen consumption relative to control, average of 3 tests) [3, 5]: 29.0%
- % stimulation (increase in oxygen consumption relative to control, average of 3 tests) [3, 6]: 76.6%
- Apex/spore (Gigaspora rosea spores [4]; GR24 10^−8 M, Series 1, 48 hours after treatment): 16.3
- Number of newly formed apexes (Gigaspora rosea spores [4]; GR24 10^−8 M, Series 1, 48 hours after treatment, 4 spores): 65
- Stimulation factor (Gigaspora rosea spores [4]; GR24 10^−8 M, Series 1, relative to control): 5.4
- Apex/spore (Gigaspora rosea spores [4]; GR24 10^−8 M, Series 2, 48 hours after treatment): 14.0
- Number of newly formed apexes (Gigaspora rosea spores [4]; GR24 10^−8 M, Series 2, 48 hours after treatment, 1 spore): 14
- Stimulation factor (Gigaspora rosea spores [4]; GR24 10^−8 M, Series 2, relative to control): 4.0
- Apex/spore (Gigaspora rosea spores [4]; GR24 10^−10 M, Series 1, 48 hours after treatment): 15.0
- Number of newly formed apexes (Gigaspora rosea spores [4]; GR24 10^−10 M, Series 1, 48 hours after treatment, 3 spores): 45
- Stimulation factor (Gigaspora rosea spores [4]; GR24 10^−10 M, Series 1, relative to control): 5.0
- Apex/spore (Gigaspora rosea spores [4]; GR24 10^−10 M, Series 2, 48 hours after treatment): 13.3
- Number of newly formed apexes (Gigaspora rosea spores [4]; GR24 10^−10 M, Series 2, 48 hours after treatment, 3 spores): 40
- Stimulation factor (Gigaspora rosea spores [4]; GR24 10^−10 M, Series 2, relative to control): 3.8
- Apex/spore (Gigaspora rosea spores [4]; GR24 10^−12 M, Series 1, 48 hours after treatment): 9.0
- Number of newly formed apexes (Gigaspora rosea spores [4]; GR24 10^−12 M, Series 1, 48 hours after treatment, 4 spores): 36
- Stimulation factor (Gigaspora rosea spores [4]; GR24 10^−12 M, Series 1, relative to control): 3.0
- Apex/spore (Gigaspora rosea spores [4]; GR24 10^−12 M, Series 2, 48 hours after treatment): 8.5
- Number of newly formed apexes (Gigaspora rosea spores [4]; GR24 10^−12 M, Series 2, 48 hours after treatment, 4 spores): 34
- Stimulation factor (Gigaspora rosea spores [4]; GR24 10^−12 M, Series 2, relative to control): 2.4
- Apex/spore (Gigaspora rosea spores [4]; GR24 10^−15 M, Series 1, 48 hours after treatment): 3.8
- Number of newly formed apexes (Gigaspora rosea spores [4]; GR24 10^−15 M, Series 1, 48 hours after treatment, 4 spores): 15
- Stimulation factor (Gigaspora rosea spores [4]; GR24 10^−15 M, Series 1, relative to control): 1.3
- Apex/spore (Gigaspora rosea spores [4]; GR24 10^−15 M, Series 2, 48 hours after treatment): 8.5
- Number of newly formed apexes (Gigaspora rosea spores [4]; GR24 10^−15 M, Series 2, 48 hours after treatment, 2 spores): 17
- Stimulation factor (Gigaspora rosea spores [4]; GR24 10^−15 M, Series 2, relative to control): 2.4
- Stimulating effect on branching (Gigaspora rosea spores [4]; doses lower than picomolar): a clear stimulating effect is still observed
- Stimulation of branching (factor) (Gigaspora rosea spores [4]; submicromolar doses of GR24): 5
